Test results as given in PMC11883961 (RSC Chemical Biology, 2025).

How the values were obtained:
[1] = molecular target: FKBP12 ligand pocket (FKBP12-LgBiT/MAPRE1-SmBiT in HEK293T cells) (Homo sapiens, UniProt P62942+Q15691); assay: NanoBiT FKBP ligand competition experiments; assay type: cell-based; details: 80 μM competitor; recruiters up to 20 μM
[2] = molecular target: FKBP12-LgBiT and MAPRE1 (N183-Y268)-SmBiT in HEK293T cells (Homo sapiens, UniProt P62942+Q15691); assay: NanoBiT FKBP12-MAPRE1 recruitment experiments; assay type: cell-based
Sequence of FKBP12-LgBiT and MAPRE1 (N183-Y268)-SmBiT in HEK293T cells (P62942 whole entry): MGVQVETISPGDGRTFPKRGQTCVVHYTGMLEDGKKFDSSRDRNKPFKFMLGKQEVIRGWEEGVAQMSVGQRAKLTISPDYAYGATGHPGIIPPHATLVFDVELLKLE
Sequence of FKBP12-LgBiT and MAPRE1 (N183-Y268)-SmBiT in HEK293T cells (Q15691 183-268): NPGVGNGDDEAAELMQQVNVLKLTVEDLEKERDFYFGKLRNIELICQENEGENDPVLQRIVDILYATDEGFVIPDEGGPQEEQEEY

Sequence of FKBP12 ligand pocket (FKBP12-LgBiT/MAPRE1-SmBiT in HEK293T cells) (P62942 whole entry): as the sequence (P62942 whole entry) above
Sequence of FKBP12 ligand pocket (FKBP12-LgBiT/MAPRE1-SmBiT in HEK293T cells) (Q15691 183-268): as the sequence (Q15691 183-268) above

Structure (SMILES): CO[C@H]1C[C@@H]2CC[C@@H](C)[C@@](O)(O2)C(=O)C(=O)N2CCCC[C@H]2C(=O)O[C@H]([C@H](C)C[C@@H]2CC[C@@H](O)[C@H](OC)C2)CC(=O)[C@H](C)/C=C(\C)[C@@H](O)[C@@H](OC)C(=O)[C@H](C)C[C@H](C)/C=C/C=C/C=C/1C [Rapamycin]
- ability to outcompete glue recruiters for FKBP12 [1]: able to outcompete even the highest dose of all glue recruiters tested
- recruitment of MAPRE1 to FKBP12 in cells [2]: neither of which measurably recruits MAPRE1 to FKBP12
